The subject of the assay is CEM cells HIV-1 protection, formazan growth assay. The assay is described as follows: NCI AIDS Antiviral Assay. The note with it: for IC50: measured here: growth of uninfected CEM cells. Put shortly: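 Soluble formazan readout of cell growth; CEM cells ± HIV-1; 5 drug concs. ≥50% protection → retest; ≥50% again = moderately active; reproducible 100% = confirmed active.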

Where “and” joins values, the source holds several entries; their conditions need not be identical. Equal entries are not always repeated. Calls of active or inactive are those of the source.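 How the source made its calls: active means compounds giving half or more protection of infected cells from virus-caused growth loss, again on retest; inactive means the rest.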 Some results are limits rather than exact numbers.

One may read the EC50 as the concentration that produces a half-maximal response. By IC50 is commonly meant the concentration needed to halve the response being measured. Low readings indicate inhibition by little substance, high ones a need for much substance. Regarding `CC(C)N(C(=O)C12C3C4C1C1C2C3C41C#N)C(C)C` (stereo not given), the EC50 was > 513 µM and the IC50 was > 513 µM.
As to `CN(C)CCCSCC(COc1nccc(-c2ccc(-c3ccc(-c4ccnc(OCC(CSCCCN(C)C)SCCCN(C)C)n4)s3)s2)n1)SCCCN(C)C` (stereo not given), the EC50 is > 4.27 µM and the 50% inhibitory concentration (IC50) came out at 2.69 µM.
On to `CC(/C=C/c1ccccc1)=N\NC(=S)N/N=C(C)/C=C/c1ccccc1`, for which the EC50 was > 200 µM and the 50% inhibitory concentration (IC50) worked out at 4.07 µM.
With `CC(=O)OC[C@H]1OC(=O)C2O[C@H](c3ccccc3)OC21` (stereo not given in full), the EC50 was > 200 µM and the IC50 is > 200 µM.
Regarding `Cc1nc2ccc(N=NN(C)C)cc2[nH]1`, the EC50 was > 200 µM and the half-inhibitory concentration (IC50) is > 200 µM.
With `CCOC(=O)[C@H](Cc1ccccc1)NC(=O)c1nc[nH]c1[N+](=O)[O-]`, the EC50 was > 537 µM and the IC50 was found to be 372 µM.
As for `NS(=O)(=O)c1ccc(CNC(=O)c2ccccc2SC(=O)CCCC[n+]2ccccc2)cc1`, the EC50 was 1.38 µM and 0.759 µM; the IC50 was 28.2 µM and 11.7 µM.
With `N#CC(C#N)=Cc1ccc(Cl)cc1`, the EC50 is > 72.4 µM and the IC50 was found to be 66.1 µM.
As for `O=C1/C(=C/c2ccccc2F)CCc2ccccc21`, the EC50 was > 10.7 µM and the 50% inhibitory concentration (IC50) was > 10.7 µM.
For `O=C1/C(=N\O)C(c2ccccc2)Oc2ccccc21` (stereo not given), the EC50 was 20.9 µM and the IC50 was determined as 38 µM.
As to `CCN(CC)CCC1CCCCN1CC(=O)N1c2cc(Cl)ccc2NC(=O)CC1C` (stereo not given), the EC50 was > 200 µM and the 50% inhibitory concentration (IC50) was > 200 µM.
In the case of `COc1ccc(Br)cc1-c1cc(Br)ccc1OC`, the EC50 is > 200 µM and the IC50 turned out to be 12.6 µM.
As for `O=C(O)C1CC(c2ccc(F)cc2)=Nc2ccc(F)cc2S1` (stereo not given), the EC50 is > 200 µM and the IC50 is > 200 µM.
As for `COc1c(C2=NC(C(C)C)CO2)ccc2ccccc12` (stereo not given), the EC50 was > 186 µM and the half-maximal inhibitory concentration (IC50) came out at 20.9 µM.
As for `Cc1cc(NS(=O)(=O)c2ccc(Nc3c4ccccc4nc4c(C(=O)NCCN(C)C)cccc34)cc2)no1`, the outcome was inactive.
Turning to `Cc1ccc(C)c(N2C(=O)C(=O)C(c3nc4ccccc4s3)/C(=N/NC(=O)NN)C2=O)c1` (stereo not given), the outcome was inactive.
As to `c1ccc2c(c1)ncn1nnnc21`, the EC50 is > 955 µM and the IC50 came out at 501 µM.
In the case of `O=C1CC(c2ccc(Cl)cc2)C2(C(=O)NC(=O)NC2=O)C(c2ccc(Cl)cc2)C1` (stereo not given), the EC50 is > 75.9 µM and the half-maximal inhibitory concentration (IC50) turned out to be 34.7 µM.
Regarding `CNC(=O)c1n[nH]nc1Sc1c([N+](=O)[O-])ncn1C`, the outcome was inactive.
For `CCOC(=O)Nc1cc(Nc2ccc(Cl)cc2)c2nc(-c3ccc(Cl)cc3)c(-c3ccc(Cl)cc3)nc2n1`, the EC50 was > 37.2 µM and the 50% inhibitory concentration (IC50) is > 37.2 µM.
In the case of `CCOCc1c(C(=O)NCCO)[n+](=O)c2ccccc2n1[O-]`, the EC50 is > 44.7 µM and the IC50 is > 44.7 µM.
Take `Cc1ccc(C(CO)(CO)OC(CO)(CO)c2ccc(C)c(C)c2)cc1C`: the EC50 was > 200 µM and the IC50 is > 200 µM.
As to `NCCN.NCCN.O=C[O-].O=C[O-].[Co+3].[O-][Cl+3]([O-])([O-])[O-]`, the result was inactive.
Take `O=C(NCCCNCCNC(=O)c1cc(-c2ccccc2)nc2ccccc12)c1cc(-c2ccccc2)nc2ccccc12`: the EC50 is > 20 µM and the IC50 amounted to 3.02 µM.
On to `CC(=O)Nc1ccc(C(=O)NN2C(=O)C(Cl)C2c2cc(Br)ccc2O)cc1` (stereo not given), for which the EC50 is > 200 µM and the IC50 amounted to 4.17 µM.
For `N#Cc1ccc(-c2nc(C#N)c(N)o2)cc1`, the EC50 is 135 µM and the half-maximal inhibitory concentration (IC50) is > 200 µM.
As for `CC1OC2(CC(OCc3ccccc3)C1OCc1ccccc1)OCCO2` (stereo not given), the EC50 is > 200 µM and the IC50 is 29.5 µM.
For `C/C(=N\NC(=O)c1ccncc1)c1cccc(F)c1`, the EC50 was > 195 µM and the concentration for half-maximal inhibition (IC50) was > 195 µM.
Regarding `COc1cc(C2c3cc4c(cc3OC(N3CCOCC3)C2C)OCO4)ccc1O` (stereo not given), the EC50 was > 200 µM and the IC50 is 5.13 µM.
As to `O=C1NC(=Nc2ccccc2Cl)SC1C(=O)Nc1ccc([N+](=O)[O-])cc1[N+](=O)[O-]` (stereo not given), the EC50 is > 115 µM and the half-maximal inhibitory concentration (IC50) is > 115 µM.
As for `O=C(/C=C\c1cccc2ccccc12)c1ccc(Cl)cc1Cl`, the EC50 was > 1.66 µM and the IC50 was > 1.66 µM.
For the compound `CC1CC(c2ccc([N+](=O)[O-])cc2)=Nc2ccccc2S1=O` (stereo not given), the EC50 is > 12 µM and the half-inhibitory concentration (IC50) is > 12 µM.
Turning to `CCOC(=O)c1nc2cc(C(F)(F)F)ccc2nc1Nc1ccc(F)cc1`, the EC50 is > 200 µM and the IC50 is 12.3 µM.
Regarding `O=C1NCN(c2ccccc2)C12CCN(Cc1ccccc1)CC2`, the EC50 was > 200 µM and the concentration for half-maximal inhibition (IC50) was > 200 µM.
Take `CCOC(=O)C1C2CCC1CC(=NNc1ccc([N+](=O)[O-])cc1[N+](=O)[O-])C2` (stereo not given): the EC50 is > 50.1 µM and the half-maximal inhibitory concentration (IC50) came out at 19.5 µM.
For the compound `C=CCNC(=O)N1CC(C)C(=O)Nc2ccccc21` (stereo not given), the EC50 was > 200 µM and the IC50 is > 200 µM.
For `CC1(C)OC[C@@H]([C@H](O)C2C=CC(=O)S2)O1` (stereo not given in full), the result was inactive.
Consider `COc1ccc(C2OCC3OC(n4cc(C)c(=O)[nH]c4=O)C[C@H]3N2OC(C)=O)cc1` (stereo not given in full), for which the outcome was inactive.
Turning to `NC(=O)C(=CNC(=S)Nc1ccc(S(N)(=O)=O)cc1)C(N)=O`, the EC50 was > 200 µM and the IC50 is > 200 µM.
Regarding `CCOC(=O)Cc1csc(NC(NC(=O)OCC)(C(=O)OCC)C(F)(F)F)n1` (stereo not given), the EC50 was > 200 µM and the IC50 is > 200 µM.
As for `O=C(NCCCN(CCCCN(CCCNC(=O)C(F)(F)F)Cc1ccc2ccccc2c1)Cc1ccc2ccccc2c1)C(F)(F)F`, the result was inactive.
`CCOP(=O)(OCC)/C(C#N)=C/c1coc2cc(C)cc(C)c2c1=O`: the EC50 is > 200 µM and the IC50 is > 200 µM.
For the compound `CN(C)c1ccc2c(c1)-c1cc(N(C)C)ccc1C2=CC=C1C(=O)NC(=O)NC1=O`, the EC50 is > 3.39 µM and the IC50 was > 3.39 µM.
Regarding `CSSCc1ccccc1`, the EC50 is > 200 µM and the IC50 worked out at 19.1 µM.
As to `COc1ccc(/C=C/C(=O)c2nc3ccccc3n2C)cc1`, the EC50 was > 200 µM and the half-inhibitory concentration (IC50) worked out at 26.9 µM.
`Cn1c2ccccc2c2[nH]c3ccccc3c(=O)c21`: the EC50 is > 200 µM and the IC50 is 13.8 µM.
As to `CCOC(=O)N1CCc2cc(OC)c(OC)cc2/C1=C/c1ccc(OC)c(OC)c1`, the result was inactive.
For the compound `COc1cc(N(CCC#N)CCC#N)ccc1/C(N=Nc1ccc([N+](=O)[O-])cc1)=N/NC(=O)c1cc(Br)ccc1O`, the EC50 is > 200 µM and the IC50 came out at 33.1 µM.
As for `COC1/C=C/OC2(C)Oc3c(C)c(O)c4c(O)c(cc(OCC(=O)N(Cc5ccccc5)Cc5ccccc5)c4c3C2=O)NC(=O)/C(C)=C/C=C/C(C)C(O)C(C)C(O)C(C)C(OC(C)=O)C1C` (stereo not given), the outcome was inactive.
Regarding `Nc1nc(Cl)cc(NCC2(CO)CC=CC2)n1`, the EC50 is > 200 µM and the IC50 is > 200 µM.
As to `O=C(/C=C/c1ccc(O)c(O)c1)OC1CC(O)(C(=O)O)CC(O)C1O` (stereo not given) (tested in a mixture with another compound), the EC50 was > 200 µM and the half-inhibitory concentration (IC50) was 81.3 µM.
With `Cc1ccc(C(O)/C(=N/N)c2nc3ccc([N+](=O)[O-])cc3[nH]c2=O)cc1` (stereo not given), the EC50 was > 537 µM and the IC50 was determined as 457 µM.
The like results for `OC1(c2ccccc2)CC2CCC(C1)N2CCCC1(c2ccc(F)cc2)OCCO1` (stereo not given) were, in that order, > 200 µM and 162 µM.
Take `CCN1CCCC(C#N)(c2ccccc2)CC1` (stereo not given): the EC50 was > 933 µM and the concentration for half-maximal inhibition (IC50) stood at 501 µM.
On to `CN(C)c1ccc(/C=C(\C#N)c2ccc(F)cc2)cc1`, for which the EC50 is > 20 µM and the IC50 was found to be 1.07 µM.
Regarding `C/C(=N\O)c1sc(-n2nc(-c3ccccc3)cc2-c2ccccc2)nc1C`, the EC50 is > 95.5 µM and the IC50 turned out to be 44.7 µM.
As to `S=c1[nH]n2c(CCCCCCCCc3nnc4sc(=S)[nH]n34)nnc2s1`, the EC50 was 123 µM and the IC50 was 178 µM.
For the compound `CN(C)CCCN1N=Nc2cccc3cccc1c23`, the result was inactive.
With `O=C(O)c1c(O)c2cc(Br)ccc2oc1=O`, the EC50 is > 200 µM and the concentration for half-maximal inhibition (IC50) worked out at 120 µM.
The corresponding values for `COc1cccc(OC)c1SSCCN` are > 200 µM and 24.5 µM.
With `O=C(CN1CCOCC1)c1ccc2c(c1)oc(=O)n2CCN1CCCC1`, the EC50 is > 200 µM and the IC50 is 95.5 µM.
With `CCOC(=O)[C@H](C)OC(=O)[C@@](C)(NC(=O)c1ccccc1C(=O)OC)[C@@H]1NC=C(C(=O)OC)CS1`, the EC50 was > 200 µM and the 50% inhibitory concentration (IC50) was found to be 53.7 µM.
For the compound `COc1ccc(/C(C)=N/NC(=O)c2ccncc2)c(OC)c1`, the EC50 was > 417 µM and the IC50 was 363 µM.
The like results for `Cc1cn(C2C[C@H](O)[C@]3(CO)C[C@H]23)c(=O)[nH]c1=O` (stereo not given in full) were, in that order, > 100 µM and > 100 µM.
Regarding `CO[C@H]1/C=C/O[C@@]2(C)Oc3c(C)c(O)c4c(O)c(c(/C=N/N5CCCN(Cc6ccccc6)CC5)c(O)c4c3C2=O)NC(=O)/C(C)=C\C=C\[C@H](C)[C@H](O)C(C)[C@@H](O)C(C)[C@H](OC(C)=O)[C@@H]1C` (stereo not given in full), the EC50 is > 200 µM and the half-inhibitory concentration (IC50) turned out to be 8.32 µM.
The corresponding values for `Cc1noc(/N=C2\C=C(Nc3onc(C)c3C)C(=O)c3ccccc32)c1C` are > 2.75 µM and > 2.75 µM.
As for `CC(Cc1ccc2c(c1)OCO2)N(C)C(=O)C1=CCN(C)CC1` (stereo not given), the EC50 was > 200 µM and the IC50 is > 200 µM.
For `Cn1c(-c2cccs2)cc(-c2ccsc2)c1-c1cccs1`, the outcome was inactive.
Take `O=C(O)CCC(=O)N1c2ccccc2CC1c1c[nH]c2ccccc12` (stereo not given): the EC50 is > 741 µM and the IC50 is 158 µM.
On to `O=C1Oc2cc3c(c4cccc1c24)OCN(c1ccc(Cl)cc1)C3`, for which the EC50 was > 8.13 µM and the IC50 is > 8.13 µM.
Take `OC(CN(CCCl)CCCl)C(O)C(O)C(O)CN(CCCl)CCCl` (stereo not given): the result was inactive.

The values above are taken from PubChem BioAssay AID179 (DTP/NCI, 2004).
